The supplement of paper PMC10307832

Columns and labels:
Assay in all cases: relative viability (nuclei count vs DMSO), 5 days (fraction); higher = more cells survive
GSK126 + AZD7762 = compound: CC[C@H](C)N1C=C(C2=C(C=C(C=C21)C3=CN=C(C=C3)N4CCNCC4)C(=O)NCC5=C(C=C(NC5=O)C)C)C [GSK126] + NC(=O)Nc1cc(-c2cccc(F)c2)sc1C(=O)N[C@H]1CCCNC1 [AZD7762] (partner 0.2 µM)
Method in brief: (§1)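 One day after seeding in 1536-well plates, lung cancer cell lines were dosed by pin tool. Dosing was either single-drug or a fixed anchor-drug dose plus five library-drug doses (not always all listed) in √10 steps. After 5 days, nuclei were stained in one fix-and-stain step and counted on 4× images, and relative viability is the nuclei count of treated wells over that of vehicle wells, given as the median of duplicate plates.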

GSK126 + Phenformin = compound: CC[C@H](C)N1C=C(C2=C(C=C(C=C21)C3=CN=C(C=C3)N4CCNCC4)C(=O)NCC5=C(C=C(NC5=O)C)C)C [GSK126] + N=C(N)NC(=N)NCCc1ccccc1 [Phenformin] (partner 250 µM)
Method in brief: as §1

MLN4924 + Decitabine = compound: NS(=O)(=O)OC[C@@H]1C[C@@H](n2ccc3c(N[C@H]4CCc5ccccc54)ncnc32)C[C@@H]1O [MLN4924] + Nc1ncn([C@H]2C[C@H](O)[C@@H](CO)O2)c(=O)n1 [Decitabine] (partner 2 µM)
Method in brief: as §1

GSK126 + Dasatinib = compound: CC[C@H](C)N1C=C(C2=C(C=C(C=C21)C3=CN=C(C=C3)N4CCNCC4)C(=O)NCC5=C(C=C(NC5=O)C)C)C [GSK126] + Cc1nc(Nc2ncc(C(=O)Nc3c(C)cccc3Cl)s2)cc(N2CCN(CCO)CC2)n1 [Dasatinib] (partner 0.075 µM)
Method in brief: as §1

Cell Line	relative viability (GSK126 + AZD7762; first compound 0.08 µM)	relative viability (GSK126 + AZD7762; first compound 0.253 µM)	relative viability (GSK126 + AZD7762; first compound 0.8 µM)	relative viability (GSK126 + AZD7762; first compound 2.53 µM)	relative viability (GSK126 + AZD7762; first compound 8 µM)	relative viability (GSK126 + Phenformin; first compound 0.08 µM)	relative viability (GSK126 + Phenformin; first compound 0.253 µM)	relative viability (GSK126 + Phenformin; first compound 0.8 µM)	relative viability (GSK126 + Phenformin; first compound 2.53 µM)	relative viability (GSK126 + Phenformin; first compound 8 µM)	relative viability (MLN4924 + Decitabine; first compound 0.04 µM)	relative viability (MLN4924 + Decitabine; first compound 0.1265 µM)	relative viability (MLN4924 + Decitabine; first compound 0.4 µM)	relative viability (MLN4924 + Decitabine; first compound 1.265 µM)	relative viability (MLN4924 + Decitabine; first compound 4 µM)	relative viability (GSK126 + Dasatinib; first compound 0.08 µM)	relative viability (GSK126 + Dasatinib; first compound 0.253 µM)	relative viability (GSK126 + Dasatinib; first compound 0.8 µM)	relative viability (GSK126 + Dasatinib; first compound 2.53 µM)	relative viability (GSK126 + Dasatinib; first compound 8 µM)
NCI-H2085	1.03	0.973	0.927	0.907	0.957	0.871	0.667	0.677	0.725	0.732	0.492	0.58	0.612	0.48	0.424	0.248	0.234	0.285	0.287	0.217
NCI-H2087	1.52	1.31	1.18	1.41	1.43	0.457	0.39	0.448	0.449	0.487	0.197	0.248	0.253	0.0811	0.061	1.14	0.707	0.856	0.78	0.908
NCI-H2126	1.13	0.988	0.974	0.945	1.06	0.512	0.534	0.554	0.535	0.507	0.526	0.49	0.425	0.293	0.231	0.656	0.661	0.644	0.671	0.494
NCI-H2170	0.951	0.966	0.823	0.86	0.815	0.386	0.427	0.393	0.391	0.376	0.444	0.249	0.273	0.167	0.144	0.544	0.533	0.574	0.612	0.686
NCI-H2342	0.543	0.425	0.477	0.619	0.58	0.942	0.566	0.558	0.525	0.759	0.695	0.75	0.718	0.643	0.468	0.358	0.288	0.312	0.314	0.315
NCI-H2347	0.757	0.707	0.711	0.723	0.783	0.488	0.444	0.499	0.352	0.409	0.623	0.694	0.495	0.413	0.335	0.257	0.331	0.347	0.305	0.304
NCI-H2405	0.794	0.603	0.695	0.715	0.611	0.394	0.384	0.365	0.328	0.304	0.659	0.483	0.406	0.28	0.28	0.203	0.207	0.188	0.19	0.189
NCI-H3122	0.968	1.01	0.956	1.03	1.01	0.405	0.367	0.364	0.351	0.319	0.423	0.264	0.2	0.14	0.125	0.969	0.728	0.819	0.748	1.2
PC-3 [JPC-3]	0.855	0.855	0.957	0.871	0.766	0.478	0.489	0.48	0.456	0.489	0.808	0.83	0.408	0.46	0.451	1.12	0.997	0.997	1.02	0.978
PC-14	0.335	0.314	0.35	0.417	0.312	0.554	0.611	0.667	0.651	0.565	0.275	0.177	0.105	0.0656	0.104	0.261	0.236	0.231	0.255	0.222
RERF-LC-KJ	–	1.09	0.959	1.1	1.03	0.484	0.417	0.396	0.4	0.396	0.592	0.497	0.24	0.182	0.236	0.883	0.886	0.756	0.717	0.703
SW 900	0.765	0.559	0.582	0.585	0.58	0.637	0.479	0.721	0.502	0.576	–	0.427	0.344	0.27	0.211	0.695	0.494	0.622	0.508	0.548
